The source of these data is patent US8415310B2, “Isoxazoline derivatives as antiparasitic agents” (AH USA 42 LLC, priority 2010, dated 2013).

A value given as a limit tells only on which side of the number the result lay.

One assay concerns Lepeophtheirus salmonis. Briefly: Copepod (Lepeophtheirus salmonis) BioAssay. To be noted: pre-adult/adult salmon lice exposed for 24 hours in sea water. In kind it is in vivo. As for the experimental part: Copepod (Lepeophtheirus salmonis) BioAssay
Two Formula (1) compounds were dissolved in sea water. Negative control was sea water and positive control was emamectin benzoate. Ten pre-adult/adult salmon lice were exposed for 24 hours. Lice were monitored for motility and endpoint data was recorded as an Effective Concentration 100% (EC^100) based on immotility.

A further assay deals with Ctenocephalides felis. Description: Flea (Ctenocephalides felis) Membrane Feed Assay-Adult. Format: in vivo. As for the experimental part: Flea (Ctenocephalides felis) Membrane Feed Assay-Adult
Comparative Data: Flea Feed Assay
Comparator compounds T1 and T2 were tested in the flea feed assay, as described above, and are compared to Examples 39 and 43, respectively. The compounds T1 (WO2008/122375) and T2 (US2009/0156643) represent the closet exemplified art. The data represents the 24 hour time period. Endpoint data were recorded as an lethal dose 90% (LD^90) in μg/mL. […] Comparator compounds T1 and T2 both had LD^90 values of >30 […].

[1] abbreviates: comparative data, flea feed assay, 24 hour time period.

As for `O=C(CC(F)(F)F)N1CC(F)(c2ccc(C3=NOC(c4cc(Cl)c(F)c(Cl)c4)(C(F)(F)F)C3)cc2)C1` (racemic) [Example 19, 1-(3-(4-(5-(3,5-dichloro-4-fluorophenyl)-5-(trifluoromethyl)-4,5-dihydroisoxazol-3-yl)phenyl)-3-fluoroazetidin-1-yl)-3,3,3-trifluoropropan-1-one], the “Effective Concentration 100% (EC^100) based on immotility” value with Lepeophtheirus salmonis is recorded as 50 ppb.

Consider `CC(C)C(=O)N1CC(F)(c2ccc(C3=NOC(c4cc(Cl)c(F)c(Cl)c4)(C(F)(F)F)C3)cc2)C1` (single isomer, unassigned) [Example 177, 5-(3,5-dichloro-4-fluorophenyl)-3-[4-(3-fluoro-1-isobutyrylazetidin-3-yl)phenyl]-5-(trifluoromethyl)-4,5-dihydroisoxazole], for which, in the assay on Lepeophtheirus salmonis, the “Effective Concentration 100% (EC^100) based on immotility” value came to 50 ppb.

In the case of `O=C(NC1CC1)N1CC(F)(c2ccc(C3=NOC(c4cc(Cl)cc(Cl)c4)(C(F)(F)F)C3)cc2)C1` (centres unmarked) [Example 10, N-cyclopropyl-3-(4-(5-(3,5-dichlorophenyl)-5-(trifluoromethyl)-4,5-dihydroisoxazol-3-yl)phenyl)-3-fluoroazetidine-1-carboxamide], the “lethal dose 90% (LD^90)” value with Ctenocephalides felis (adult fleas fed on treated citrated bovine blood approximately 2 hours, knockdown and/or death at approximately 2 and 24 hours) is no more than 0.03 µg/mL.

`CC(=O)N1CC(F)(c2ccc(C3=NOC(c4cc(Cl)cc(Cl)c4)(C(F)(F)F)C3)cc2)C1` (centres unmarked) [Example 39, 1-(3-(4-(5-(3,5-Dichlorophenyl)-5-(trifluoromethyl)-4,5-dihydroisoxazol-3-yl)phenyl)-3-fluoroazetidin-1-yl)ethanone]: the “lethal dose 90% (LD^90)” value in the assay on Ctenocephalides felis (setting [1]) was no more than 3 µg/mL.

For the molecule `O=C(CC(F)(F)F)N1CC(F)(c2ccc(C3=NOC(c4cc(Cl)cc(Cl)c4)(C(F)(F)F)C3)cc2)C1` (centres unmarked) [Example 43, 1-(3-(4-(5-(3,5-Dichlorophenyl)-5-(trifluoromethyl)-4,5-dihydroisoxazol-3-yl)phenyl)-3-fluoroazetidin-1-yl)-3,3,3-trifluoropropan-1-one], the “lethal dose 90% (LD^90)” value in the assay with Ctenocephalides felis (setting [1]) was no more than 1 µg/mL.
